Experimental findings from patent US10736912B2, “Compositions containing PUFA and/or uridine and methods of use thereof” (MASSACHUSETTS INSTITUE OF TECHNOLOGY, priority 2005, dated 2020) are described below.

Test [1] concerns brain phospholipid levels. Briefly: Brain phospholipid levels in gerbils given UMP diet and/or PUFA by gavage. As to conditions: for Brain phospholipid levels: Table 6. The test is classed as in vivo, gerbil. As to the method: (§1) Cells were homogenized in 100 volumes of ice-cold deionized water using a tissue degrader (Polytron PT 10-35, Kinematica AG, Switzerland); 1 ml of aliquots were then mixed with 3 ml of chloroform+methanol mixture (2:1 v/v) and vortexed vigorously for 30 seconds. After cooling for 1 h on ice, the mixture was mixed sequentially with 3 ml of chloroform+methanol mixture (2:1 v/v) and 1 ml of ice-cold deionized water. The mixture was vortexed vigorously and allowed to stand overnight in the cold room (18 h). The organic (lower) and aqueous (upper) phases of the mixtures were separated by centrifugation (10 min at 4° C.; 1000 g). An aliquot (2 ml) of the upper phase was used for determination of CDP-Choline (see below), and 0.1-0.4 ml aliquots of the lower phase were dried under vacuum for phospholipid analysis. Residues of 0.1 ml aliquots of the lower phase were assayed for total phospholipid content by measuring phosphorus. Residues of 0.4 ml aliquots of the lower phase were reconstituted in 40 μl methanol and subjected to thin-layer chromatography using silica G plates (Adsorbosil Plus-1®, Alltech), and a system consisting of chloroform/ethanol/triethylamine/water (30:34:30:8) as the mobile phase. Phospholipid standards were used to identify the corresponding bands under UV light after the plates were sprayed with 0.1% diphenylhexatriene in petroleum ether. Bands for individual phospholipid classes (PC, PE, SM, PS and PI) were scraped off the plates and extracted into 1 ml of methanol; dried under vacuum; and assayed for phosphorus content. Total phosphorus was determined by comparison with standard curves by using KH2PO4 run with each assay. To each sample was added 0.5 ml of 4.5% HclO4/27% H2SO4 and tubes were heated at 180° C. for 3 h. After cooling to room temperature, 5 ml of the color reagent (a 10:1 dilution of solutions containing 2.5 mg/ml ammonium molybdate, 8.2 mg/ml sodium acetate and 100 mg/ml ascorbic acid respectively) was added and the tubes were incubated for 2 h, 37° C. Absorbance was measured spectrophotometrically at 820 nm. Phospholipid mass was determined by multiplying the phosphorus content by 25.
Control standard diet (Table 4) consisted of Teklad Global 16% protein rodent diet (Harlan Teklad, Madison, Wis.), which contained 0.1% choline chloride (CC), corresponding to a daily dose of 50 mg/kg/day. UMP was provided as 0.5% UMP·2Na^+ weight/weight, added to the control diet, also prepared by Harlan Teklad, corresponding to 240 mg/kg/day UMP. DHA was administered as 300 mg/kg/day in 200 microliter (mcL)/day 5% Arabic Gum solution, while groups not receiving DHA were administered vehicle (5% Arabic Gum) alone. DHA was provided by Nu-Chek Prep (Elysian, Minn.) and UMP by Numico (Wagenigen, NL).
Gerbils were anesthetized with ketamine and xylazine (80 and 10 mg/kg bwt, i.p.) and sacrificed by immersing the head into liquid nitrogen for 2 min, followed by decapitation. Brains were immediately and quickly (30 seconds) removed using a bone rongeur and stored at −80° C.
Frozen brain hemispheres were weighed and homogenized in 100 volumes of ice-cold deionized water using a tissue degrader (Polytron PT 10-35, Kinematica AG, Switzerland), then analyzed as described in Example 1.
Protein in whole brain homogenate sample was measured for using bicinchoninic acid reagent (Perkin Elmer, Norwalk, Conn., USA). DNA was measured by measuring 460 nm emission of samples on a fluorometer in the presence of bisbenzimidizole, a fluorescent dye known as Hoechst H 33258 (American Hoechst Corporation), which has an excitation maximum at 356 nm and an emission maximum of 458 when bound to DNA.
Male gerbils weighing 80-100 g were divided into 4 groups of 8 gerbils and administered the supplements depicted in Table 1: […]

Test [2] has as its system SHSY-5Y cells. Nature of the test: 14C-choline incorporation into phospholipids in SHSY-5Y cells. The note with it: for Phospholipid synthesis enhanced: 10 μM fatty acid, 18 hr, FIG. 3A. The test is classed as cell-based, human. How it is done: SHSY-5Y cells were grown to near confluency in DMEM+10% FBS in 35 mm dishes. Cells were incubated for 18 hr in serum-free DMEM+1% FBS containing 30 μM choline+/−10 μM of DHA, arachidonic acid, or palmitic acid. Cells were then labeled, and labeled phospholipids were quantified as described for Example 1.
DHA was dissolved in ethanol to a […] concentration and frozen in 10 microliter aliquots at −80° C. For each experiment, one aliquot was diluted in ethanol to 10 micromolar; the volume giving the desired final solution in incubation medium was mixed with an equal volume of BSA solution (1 gm/ml).
The effect of omega-6 fatty acids on phospholipid synthesis was next examined in SHSY-5Y cells, a human neuroblastoma cell line. In this case, phospholipid synthesis was enhanced by arachidonic acid, an omega-6 fatty acid, but not by DHA or palmitic acid (FIG. 3A).
The effect of arachidonic acid on phospholipid synthesis in SHSY-5Y cells was further characterized as described for omega-3 fatty acids and PC-12 cells in Example 2.

Test [3] has as its system PC-12 cells. Nature of the test: 14C-choline incorporation into phospholipids in PC-12 cells. In kind it is cell-based. The note with it: 5 μM fatty acid, 18 hr pre-incubation, then 14C-choline 2.5 hr; FIG. 1. How it is done:
PC-12 cells were maintained in Dulbecco's modified Eagle's medium (DMEM)+10% fetal bovine serum (FBS). For experiments, cells were grown in quintuplicate collagen-coated 35 millimeter (mm) dishes. Cells were incubated for 18 hours (hr) in serum-free DMEM containing 28 μM choline+/−5 micromolar (μM) of DHA, oleic acid, or palmitic acid. Cells were then labeled for 2.5 hr with 0.5 microcurie (μCi)/ml ^14C-choline in serum-free DMEM containing 10-micromolar (μM) choline.
as §1, with “To each sample was added 0.5 ml of 4.5% HclO4/27% H2SO4 and tubes were heated at 180° C. for 3 h. After cooling to room temperature, 5 ml of the color reagent (a 10:1 dilution of solutions containing 2.5 mg/ml ammonium molybdate, 8.2 mg/ml sodium acetate and 100 mg/ml ascorbic acid respectively) was added and the tubes were incubated for 2 h, 37° C.” left out
In order to assess the effect of omega-3 fatty acids on phospholipid synthesis, PC-12 cells were incubated with ^14C-labeled choline, following an 18-hour pre-incubation with or without DHA. Incorporation of label into phospholipids was then measured. […]
To further characterize the stimulation of phospholipid synthesis by omega-3 fatty acids, PC-12 cells were pre-treated with different doses of DHA and exposed to labeled choline as described in Example 1, then incorporation of ^14C-label into phospholipids was measured. […]

Test [4] concerns brain CDP-choline levels. Briefly: Brain CDP-choline and CDP-ethanolamine levels in gerbils. The test is classed as in vivo, gerbil. The note with it: 28 days. The source says:
FIGS. 5A and 5B. FIG. 5A illustrates the effect Effects of DHA on brain CDP-choline levels (FIG. 5A) and while FIG. 5B illustrates the effect of DHA on brain CDP-ethanolamine levels (FIG. 5B). Groups of 8 gerbils received either a control or a UMP-containing diet, and, by gavage, DHA (in a vehicle of 5% gum Arabic solution) or 5% gum Arabic solution alone for 28 days. On the 29th day brains were harvested and assayed for CDP-choline. Data are presented as means±SEM. Statistical analysis was performed using one- or two-way ANOVA followed by Tukey test. a: P<0.05 when compared with the values for control diet plus vehicle group; b: P<0.05 when compared with values for UMP diet plus vehicle group.
Aliquots (2 ml) of the upper (aqueous) phase were dried under a vacuum, reconstituted, and injected into an HPLC. The dried samples were reconstituted in 100-200 μl water and were analyzed by HPLC on an anion exchange column (Alltech Hypersil APS-2, […], 250×4.6 mm). CDP-choline was eluted with a linear gradient of buffers A (H3PO4, 1.75 mM, pH 2.9) and B (NaH2PO2, 500 mM, pH 4.5) from 0 to 100% B over period of 30 min. With this system, CDP-choline was resolved from closely co-eluting substances such as UMP in an isocratic system over a period of 40 min. The retention time for CDP-choline was 9.5 min. The column was washed with buffer B at the end of each experiment and every several days to remove retained nucleotides. Individual nucleotide peaks were detected by UV absorption at 280 nm and were identified by comparison with the positions of authentic standards, as well as by the addition of nucleotide standards to samples.
To determine the effect of PUFA administration on CDP-choline levels, brain CDP-choline levels were measured in the animals from the previous Example. Administration of DHA and/or UMP decreased CDP-choline levels (FIG. 5A) and CDP-ethanolamine levels (FIG. 5B). DHA reduced CDP-choline levels by 26% (compared with those receiving just the control diet and DHA's vehicle), and in UMP-treated gerbils by 21% (compared with those receiving UMP-containing diet and DHA's vehicle) (both P<0.05).

Test [5] relates to brain phospholipid levels. Nature of the test: Brain phospholipid levels in rat pups of treated pregnant and nursing mothers. In kind it is in vivo. As to conditions: rat pups, postnatal day 20, mean. How it is done: In another study, pregnant rats were allowed to consume ad libitum, for 10 days before parturition and 20 days while nursing, either a choline-containing control diet or this diet supplemented with uridine as UMP; half of each group also received DHA or its diluent daily, by gavage. Pups were then sacrificed and brain slices were examined to determine numbers of hippocampal dendritic spines.
Pregnant and nursing rats were administered DHA and/or uridine as described in Example 9. At 20 days post-birth, rats were sacrificed and brain samples were obtained and assayed for phospholipids. Administration of DHA alone increased brain PC, PI, PE, and sphingomyelin (SM) per cell (DNA) by 36, 166, 38, and 78%, respectively. UMP markedly amplified the effects of DHA to 66, 210, 68, and 99% of control, respectively (Table 8). These increases were greater than those observed in adult animals. Similar results were obtained when normalizing to protein (Table 9). Thus, administration of DHA and/or uridine to pregnant and nursing mothers is able to increase phospholipid levels in the offspring.

Where [6] appears, read: Table 9, nmol per microgram DNA.

Molecules are shown by their SMILES.

For `CCCCCC=CCC=CCC=CCC=CCCCC(=O)O` [AA, 5,8,11,14-eicosatetraenoic acid], the “Brain phospholipid levels” value in test [1] (3 weeks) is “increased”. The Phospholipid synthesis enhanced result in test [2] is “enhanced”. In addition, the “Synthesis of total phospholipids, PC, and phosphatidylethanolamine” value in test [2] (range of dosages, FIG. 3B) is on record as “increased”.
With `CCCCCCCCCCCCCCCC(=O)O` [palmitic acid, reference compound], in test [3], the “Phosphatidylcholine (PC) synthesis significantly increased (incorporation of 14C label into PC)” value is given as “not”. The Phospholipid synthesis enhanced entry in test [2] is “not”.
On to `O=c1ccn([C@@H]2O[C@H](COP(=O)(O)O)[C@@H](O)[C@H]2O)c(=O)[nH]1` [UMP, uridine monophosphate], for which, in test [1] (1 week), the “Effects on brain phospholipids after 1 week of treatment” value is “no significant effects”. The “Increases in brain phospholipids” value in test [1] (3 weeks) is reported as “smaller but still significant increases”. The “Increase in levels of total phospholipids over control group” value in test [1] (4 weeks, gerbil brain) stood at 5%. Moreover, in test [1] (Table 5 part A), the “Total PtdCho” value is given as 171 ± 8 nmol/mg prt, the “Total PtdEtn” value is 84 ± 8 nmol/mg prt, the “Total PtdSer” value worked out at 35 ± 3 nmol/mg prt and the “Total Ptdins” value is 31 ± 2 nmol/mg prt. Besides, in test [1] (Table 5 part B, One Week), the “Total PtdEtn” value stood at 63 ± 4 nmol/mg prt, the “Total PtdSer” value was 39 ± 1 nmol/mg prt and the “Total Ptdins” value amounted to 20 ± 4 nmol/mg prt. In test [1] (Table 5 part B, Three Weeks), the “Total PtdEtn” value amounted to 87 ± 4 nmol/mg prt, the “Total PtdSer” value is listed as 42 ± 2 nmol/mg prt and the “Total Ptdins” value came out at 25 ± 1 nmol/mg prt. Further, in test [4], the “CDP-choline levels (FIG. 5A)” value is recorded as “decreased” and the “CDP-ethanolamine levels (FIG. 5B)” value was “decreased”. For the same compound, in test [5] (Table 8, nmol per mg protein), the PC is recorded as 95.3 nmol/mg protein, the PE amounted to 75.6 nmol/mg protein, the PI is 3.92 nmol/mg protein and the SM is given as 5.27 nmol/mg protein. In test [5] (Table 8, nmol per mg protein), the “Total Phospholipids” value was 282.2 nmol/mg protein. In test [5] (setting [6]), the PC is reported as 8.11 nmol/microgram DNA, the PE came out at 6.56 nmol/microgram DNA, the PI is 0.352 nmol/microgram DNA and the SM is listed as 0.458 nmol/microgram DNA. For the same compound, in test [5] (setting [6]), the “Total Phospholipids” value is on record as 24.78 nmol/microgram DNA.
In the case of `CCC=CCC=CCC=CCC=CCC=CCCCC(=O)O` [EPA, 5,8,11,14,17-eicosapentaenoic acid], in test [1] (3 weeks), the “Brain phospholipid levels” value is given as “increased”.
In the case of `CCCCCCCC/C=C\CCCCCCCC(=O)O` [oleic acid, reference compound], the “Phosphatidylcholine (PC) synthesis significantly increased (incorporation of 14C label into PC)” value in test [3] is given as “not”.
